This note sets out measurements from PMC7734281, “Functionalized Oxoindolin Hydrazine Carbothioamide Derivatives as Highly Potent Inhibitors of Nucleoside Triphosphate Diphosphohydrolases” (Frontiers in Pharmacology, 2020).

The target of one series is T1, h-NTPDase3 (Homo sapiens, UniProt O75355).
T1 construct: made in house; host or cells: COS-7 cells, transient transfection; crude protein extract after sonication
T1 sequence (O75355 1-529): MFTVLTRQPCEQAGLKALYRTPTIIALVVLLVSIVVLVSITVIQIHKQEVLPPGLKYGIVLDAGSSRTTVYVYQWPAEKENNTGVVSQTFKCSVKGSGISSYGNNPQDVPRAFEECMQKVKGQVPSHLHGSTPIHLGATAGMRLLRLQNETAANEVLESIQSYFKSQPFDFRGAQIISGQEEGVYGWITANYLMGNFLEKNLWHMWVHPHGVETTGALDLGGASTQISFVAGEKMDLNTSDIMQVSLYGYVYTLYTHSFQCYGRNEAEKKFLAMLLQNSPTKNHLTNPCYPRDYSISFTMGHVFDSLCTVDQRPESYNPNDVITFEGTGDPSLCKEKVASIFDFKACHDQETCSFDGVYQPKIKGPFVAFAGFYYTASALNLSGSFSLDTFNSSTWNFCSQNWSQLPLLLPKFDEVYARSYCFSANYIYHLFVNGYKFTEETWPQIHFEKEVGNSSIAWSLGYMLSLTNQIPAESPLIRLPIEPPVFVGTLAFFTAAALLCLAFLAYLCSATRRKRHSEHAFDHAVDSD
Description: h-NTPDase3 inhibition, malachite green assay. The format is biochemical. Particulars: for inhibition at 100 µM / Ki / IC50: human NTPDase3; for inhibition at 100 µM: compound 100 µM; for Mode of inhibition of h-NTPDase3: Lineweaver-Burk plot; for IC50: ATP 100 µM substrate, mean ± SEM of three independent experiments. As to the method:
(§1) COS-7 cells were transfected with plasmids expressing human or mouse NTPDases1, -2, -3, and -8 as previously described ([Levesque et al., 2007]; [Lecka et al., 2014]) Briefly, the confluent cells were transferred to Dulbecco’s Modified Eagle’s Medium containing no fetal bovine serum. Then, these cells were incubated with plasmid DNA (6 µg) and Lipofectamine reagent (24 µl) at 37°C. After 5 h, transfection was terminated with the addition of an equal volume of DMEM/F-12 (supplemented with 20% FBS) and cells were collected by harvesting after 40–72 h.
(§2) To prepare protein extracts, transfected COS-7 cells were washed three times with tris-saline buffer while temperature was maintained at 4°C. Then cells were scraped and resuspended in harvesting buffer containing 95 mM NaCl, 45 mM tris and 0.1 mM phenylmethylsulfonyl fluoride (pH 7.5). Cells were again washed twice by centrifugation for 5 min at 300 × g at 4°C and then resuspended in harvesting buffer (supplemented with 10 μg ml aprotinin). Following sonication, cellular debris was isolated by 10 min centrifugation at 300 g at 4°C. Subsequently, supernatant was removed very carefully and protein concentration was determined by using Bradford microplate assay while using the bovine serum albumin as a standard ([Bradford, 1976]).
(§3) The inhibitory effects of synthesized compounds on h-NTPDase1, -2, -3, and -8 were determined as described previously, although with slight modifications ([Martín-Satué et al., 2009]). Assay was conducted in a reaction medium containing 50 mM tris-HCl and 5 mM CaCl2 (pH 7.4). All the test compounds were dissolved in dimethyl sulfoxide (DMSO, 10%) and initially screened at a concentration of 100 µM. A reaction mixture containing 55 µl of assay buffer, 10 µl of test compound solution and 10 µl of h-NTPDase1 (58 ng/well) or h-NTPDase2 (79 ng/well) or h-NTPDase3 (163 ng/well) or h-NTPDase8 (66 ng/well) was incubated at 37°C for 10 min. Following the incubation, a 10 µl solution of adenosine triphosphate (ATP, 100 µm) was added as substrate and reaction mixture was again incubated for 15 min at 37°C. The reaction was stopped by adding malachite green reagent (15 µl) and placed at room temperature for 4 to 6 min. Finally, absorbance was measured at 630 nm by using Omega FLUOstar microplate reader (BMG Labtech, Ortenberg, Germany) and % inhibitions were calculated. For compounds showing more than 50% inhibition of any isozyme, dose response curves were generated and their IC50 values were determined. Three separate enzyme inhibition assays were carried out in triplicate and dose-response curve were generated by using PRISM 5.0 (GraphPad, San Diego, United States).

Another series concerns the target T2, h-NTPDase2 (Homo sapiens, UniProt Q9Y5L3).
T2 construct: made in house; host or cells: COS-7 cells, transient transfection; crude protein extract after sonication
T2 sequence (Q9Y5L3 1-495): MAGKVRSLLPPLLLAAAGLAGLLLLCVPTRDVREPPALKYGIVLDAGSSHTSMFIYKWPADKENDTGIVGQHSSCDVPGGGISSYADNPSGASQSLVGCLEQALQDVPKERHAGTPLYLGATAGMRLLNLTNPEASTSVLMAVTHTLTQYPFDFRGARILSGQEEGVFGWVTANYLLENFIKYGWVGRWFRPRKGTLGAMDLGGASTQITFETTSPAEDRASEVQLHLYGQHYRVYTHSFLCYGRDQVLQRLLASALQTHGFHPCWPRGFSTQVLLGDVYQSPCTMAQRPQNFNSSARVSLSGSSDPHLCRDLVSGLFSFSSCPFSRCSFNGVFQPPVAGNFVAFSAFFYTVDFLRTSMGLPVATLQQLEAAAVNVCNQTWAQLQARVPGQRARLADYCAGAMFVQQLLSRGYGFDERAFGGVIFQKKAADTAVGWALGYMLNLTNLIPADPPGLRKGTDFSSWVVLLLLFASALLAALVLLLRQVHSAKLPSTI
Description: h-NTPDase2 inhibition, malachite green assay. The format is biochemical. Particulars: for inhibition at 100 µM: compound 100 µM; for IC50: ATP 100 µM substrate, mean ± SEM of three independent experiments. As to the method: as §1, §2, §3

Broadly, the inhibition is the change of the read-out against control, counted positive when it falls. A low value points to little suppression. Broadly, the melting point is the temperature, or range, at which the solid turns liquid. For `O=C1Nc2ccccc2/C1=N/NC(=S)Nc1cccc(Cl)c1` [8g, (Z)-N-(3-chlorophenyl)-2-(2-oxoindolin-3-ylidene)hydrazine-1-carbothioamide], the melting point lay within 235 to 236 °C. This compound returned an inhibition at 100 µM at h-NTPDase3 of 17%. The inhibition at 100 µM at h-NTPDase2 is 29%.

The compound `O=C1Nc2ccccc2/C1=N/NC(=S)Nc1c(F)cccc1F` [8l, (Z)-N-(2,6-difluorophenyl)-2-(2-oxoindolin-3-ylidene)hydrazine-1-carbothioamide] yielded a melting point of 243 to 244 °C. On h-NTPDase2, the inhibition at 100 µM was below 50%.

Turning to `O=C1Nc2ccccc2/C1=N/NC(=S)Nc1ccc([N+](=O)[O-])cc1` [8b, (Z)-N-(4-nitrophenyl)-2-(2-oxoindolin-3-ylidene)hydrazine-1-carbothioamide], the melting point lay within 271 to 272 °C.

One may read the Ki as the equilibrium dissociation constant of an inhibitor or competing ligand from its target. For orientation: IC50 means the point on the concentration scale where inhibition reaches its midpoint. A higher IC50 goes with a need for much substance. Turning to `COc1ccc(NC(=S)NNC2=c3ccccc3=NC2=O)cc1` [8k, (Z)-N-(4-methoxyphenyl)-2-(2-oxoindolin-3-ylidene)hydrazine-1-carbothioamide], on h-NTPDase3, the inhibition at 100 µM stood at 19%. At h-NTPDase2, the affinity, expressed as Ki, was 0.07 µM and the IC50 amounted to 0.16 ± 0.01 µM.

The compound `O=C1Nc2ccccc2/C1=N/NC(=S)Nc1ccc(F)cc1` [8d, (Z)-N-(4-fluorophenyl)-2-(2-oxoindolin-3-ylidene)hydrazine-1-carbothioamide] had a melting point of 255 to 256 °C. Further, the inhibition at 100 µM against h-NTPDase3 stood at 46%. Further, the inhibition at 100 µM against h-NTPDase2 amounted to 48%.

With `Cc1ccc(NC(=S)N/N=C2\C(=O)Nc3ccccc32)cc1` [8h, (Z)-2-(2-oxoindolin-3-ylidene)-N-(p-tolyl)hydrazine-1-carbothioamide], the inhibition at 100 µM is 26% at h-NTPDase3 and 17% against h-NTPDase2.

`COc1ccc(OC)c(NC(=S)N/N=C2\C(=O)Nc3ccccc32)c1` [8j, (Z)-N-(2,5-dimethoxyphenyl)-2-(2-oxoindolin-3-ylidene)hydrazine-1-carbothioamide] showed a melting point of 245 to 248 °C. On h-NTPDase3, this compound yielded an inhibition at 100 µM of 34%. On h-NTPDase2, this compound came in with a Ki of 0.04 µM and an IC50 of 0.11 ± 0.08 µM.

For the compound `O=C1Nc2ccccc2/C1=N/NC(=S)NCc1ccccc1` [8f, (Z)-N-benzyl-2-(2-oxoindolin-3-ylidene)hydrazine-1-carbothioamide], the melting point is 206 to 208 °C. The inhibition at 100 µM against h-NTPDase2 is below 50%.

`COc1cccc(NC(=S)N/N=C2\C(=O)Nc3ccccc32)c1` [8e, (Z)-N-(3-methoxyphenyl)-2-(2-oxoindolin-3-ylidene)hydrazine-1-carbothioamide] displayed a melting point of 220 to 224 °C. The inhibition at 100 µM against h-NTPDase2 was below 50%.

As for `O=C1Nc2ccccc2/C1=N/NC(=S)Nc1ccccc1` [8a, (Z)-2-(2-oxoindolin-3-ylidene)-N-phenylhydrazine-1-carbothioamide], the inhibition at 100 µM is 20% at h-NTPDase3 and 24% against h-NTPDase2.

Take `CCNC(=S)N/N=C1\C(=O)Nc2ccccc21` [8m, (Z)-N-ethyl-2-(2-oxoindolin-3-ylidene)hydrazine-1-carbothioamide]: the melting point was 190 to 194 °C. For the same compound, at h-NTPDase3, the “Mode of inhibition of h-NTPDase3” value is listed as “non-competitive”, the Ki was found to be 0.16 µM and it took 0.38 ± 0.03 µM to reach half-maximal inhibition (IC50). The same compound displayed an inhibition at 100 µM against h-NTPDase2 of 42%.

Consider `Cc1cccc(C)c1NC(=S)N/N=C1\C(=O)Nc2ccccc21` [8i, (Z)-N-(2,6-dimethylphenyl)-2-(2-oxoindolin-3-ylidene)hydrazine-1-carbothioamide], for which the melting point fell in the range of 250 to 252 °C. The compound also displayed an inhibition at 100 µM at h-NTPDase3 of 25%. In addition, on h-NTPDase2, the Ki was 0.17 µM and the IC50 was 0.41 ± 0.03 µM.

As to `O=C1Nc2ccccc2/C1=N/NC(=S)Nc1ccc(Cl)cc1` [8c, (Z)-N-(4-chlorophenyl)-2-(2-oxoindolin-3-ylidene)hydrazine-1-carbothioamide], the melting point lay in the range of 240 to 244 °C. The “Times more active than standard inhibitor suramin (comparison of IC50s), h-NTPDase3” value on h-NTPDase3 (IC50 ratio versus suramin) is listed as 22 times. Also, on h-NTPDase3, the “Mode of inhibition of h-NTPDase3” value is “competitive”, the Ki worked out at 0.08 µM and the IC50 stood at 0.19 ± 0.02 µM. The same compound gave an inhibition at 100 µM against h-NTPDase2 of 46%.

Consider `Cc1ccc(C(=O)Nc2ccc(S(=O)(=O)O)c3cc(S(=O)(=O)O)cc(S(=O)(=O)O)c23)cc1NC(=O)c1cccc(NC(=O)Nc2cccc(C(=O)Nc3cc(C(=O)Nc4ccc(S(=O)(=O)O)c5cc(S(=O)(=O)O)cc(S(=O)(=O)O)c45)ccc3C)c2)c1` [Suramin, reference compound], for which the Ki on h-NTPDase3 turned out to be 1.85 µM; on h-NTPDase2 it was 9.92 µM. For the same compound, the IC50 at h-NTPDase3 came to 4.31 ± 0.41 µM; against h-NTPDase2 it was 24.1 ± 3.01 µM.
